Assay [1] has as its target T1, Aurora kinase A (Homo sapiens, UniProt O14965).
T1 sequence (O14965 whole entry): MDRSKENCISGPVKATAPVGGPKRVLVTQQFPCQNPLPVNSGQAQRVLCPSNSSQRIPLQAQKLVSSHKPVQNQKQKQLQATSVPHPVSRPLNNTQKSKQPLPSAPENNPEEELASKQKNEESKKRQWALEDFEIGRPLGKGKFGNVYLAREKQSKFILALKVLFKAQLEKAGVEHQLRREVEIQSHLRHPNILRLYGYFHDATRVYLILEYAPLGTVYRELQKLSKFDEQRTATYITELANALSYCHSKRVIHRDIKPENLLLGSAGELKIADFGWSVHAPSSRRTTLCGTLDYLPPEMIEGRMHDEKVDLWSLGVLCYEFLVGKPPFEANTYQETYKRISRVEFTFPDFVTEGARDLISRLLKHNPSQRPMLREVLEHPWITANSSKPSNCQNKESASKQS
Kind of assay: Enzyme Inhibition Assay. Particulars: pH 7.5; 22 °C. As to the method:
(§1) Aurora kinase was assayed in ELISA format using a GST fusion of the N-terminus of Histone H3 as substrate. Plates were coated with substrate, and then blocked with I-block (Tropix) in PBS. After kinase reaction, product was detected by incubation with antiphosphohistone H3 (Ser10) 6G3 mouse monoclonal antibody and sheep-antimouse HRP conjugate, followed by washing and addition of TMB substrate.

Assay [2] concerns the target Aurora kinase B (Homo sapiens, UniProt Q96GD4). The experiment in a line: Enzyme Inhibition Assay. To be noted: pH 7.5; 22 °C. The method, then:
as §1

The values that follow come from BindingDB's records for doi:10.1021/jm800052b (Genentech, 2008).

Sequence of Aurora kinase B (Q96GD4 whole entry): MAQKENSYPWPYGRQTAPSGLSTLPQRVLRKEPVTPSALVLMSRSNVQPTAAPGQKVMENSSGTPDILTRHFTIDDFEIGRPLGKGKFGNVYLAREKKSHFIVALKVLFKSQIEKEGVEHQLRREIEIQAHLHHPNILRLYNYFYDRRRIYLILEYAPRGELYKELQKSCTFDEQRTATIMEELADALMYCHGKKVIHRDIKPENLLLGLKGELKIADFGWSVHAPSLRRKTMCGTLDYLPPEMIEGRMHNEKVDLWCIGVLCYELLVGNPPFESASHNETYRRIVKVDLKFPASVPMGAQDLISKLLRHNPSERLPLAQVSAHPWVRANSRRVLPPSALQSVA

Consider `Cc1[nH]nc2c1CCCc1c-2[nH]c2ccccc12` [5-methyl-3,4,17-triazatetracyclo[8.7.0.0^{2,6}.0^{11,16}]heptadeca-1(10),2,5,11,13,15-hexaene], for which the IC50 turned out to be 42 nM in assay [1] and 22 nM in assay [2].
Turning to `Cc1[nH]nc2c1CCCc1c-2[nH]c2cc3c(cc12)NC(=O)C3(C)C` [7,7,16-trimethyl-5,11,14,15-tetraazapentacyclo[10.8.0.0^{2,10}.0^{4,8}.0^{13,17}]icosa-1(12),2,4(8),9,13,16-hexaen-6-one], in assay [2], the IC50 is below 2 nM.
